Measurements: the supplement of paper PMC11061612

Legend:
[1] = compound: CC1(C)CCC(CN2CCN(c3ccc(C(=O)NS(=O)(=O)c4ccc(NCC5CCOCC5)c([N+](=O)[O-])c4)c(Oc4cnc5[nH]ccc5c4)c3)CC2)=C(c2ccc(Cl)cc2)C1 [Venetoclax]; conditions: max 1 µM
Procedure, shortened: (§1)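 Cancer cell lines were dosed for 72 hours (final DMSO typically 0.2%) after 24 hours at 37°C and 5% CO2 in 1536-well plates containing 7.5 μl DMEM/F12 or RPMI with 10% FBS. Viability came from CellTiter-Glo 2.0 luminescence, scaled between blank-well and DMSO-well means, and dose responses were fitted to a two-parameter logistic curve with a non-linear mixed effects model. The single-agent IC50 was obtained from this fit.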

[2] = compound: C1CN(CCC1(C(=O)N[C@@H](CCO)C2=CC=C(C=C2)Cl)N)C3=NC=NC4=C3C=CN4 [Capivasertib]
Procedure, shortened: as §1

[3] = compound: CC(=O)c1c(C)c2cnc(Nc3ccc(N4CCNCC4)cn3)nc2n(C2CCCC2)c1=O [Palbociclib]; conditions: max 10 µM
Procedure, shortened: as §1

[4] = compound: O=C(c1cc(Cc2n[nH]c(=O)c3ccccc23)ccc1F)N1CCN(C(=O)C2CC2)CC1 [Olaparib]
Procedure, shortened: as §1

[5] = compound: COc1cccc(OCCCN)c1-c1cc(Nc2cnc(C#N)cn2)n[nH]1 [Prexasertib]; conditions: max 1 µM
Procedure, shortened: as §1

[6] = compound: CN(C)CCCOc1ccc(-c2ccc3ncc4c(c3c2)n(C2CCOCC2)c(=O)n4C)cn1 [AZD0156]; conditions: max 3 µM
Procedure, shortened: as §1

[7] = compound: C[C@@H](Nc1cc(F)cc(F)c1)c1cc(C(=O)N(C)C)cc2c(=O)cc(N3CCOCC3)oc12 [AZD8186]; conditions: max 3 µM
Procedure, shortened: as §1

[8] = compound: CN(CC[C@H](CSC1=CC=CC=C1)NC2=C(C=C(C=C2)S(=O)(=O)NC(=O)C3=CC=C(C=C3)N4CCC(CC4)[C@H](C5=CC=CC=C5C6=CC=C(C=C6)Cl)O)S(=O)(=O)C(F)(F)F)CCO [AZD4320]; conditions: max 1 µM
Procedure, shortened: as §1

[9] = compound: Cc1c2c(nn1C)CSCc1cc(n(C)n1)CSc1cc(c3ccccc3c1)OCCCc1c(C(=O)O)n(C)c3c-2c(Cl)ccc13 [AZD5991]; conditions: max 1 µM
Procedure, shortened: as §1

[10] = compound: CCN(CCO)CCCOc1ccc2c(Nc3cc(CC(=O)Nc4cccc(F)c4)[nH]n3)ncnc2c1 [AZD2811]; conditions: max 1 µM
Procedure, shortened: as §1

[11] = compound: Cn1cnc2c(F)c(Nc3ccc(Br)cc3Cl)c(C(=O)NOCCO)cc21 [Selumetinib]; conditions: max 10 µM
Procedure, shortened: as §1

[12] = compound: COc1nnc2ccc(N3CCC(c4ccc(OCCN5CCN(C)C(=O)[C@H]5C)cc4)CC3)nn12 [AZD5153]; conditions: max 1 µM
Procedure, shortened: as §1

[13] = compound: C[C@@H]1COCCN1C2=NC(=NC(=C2)C3(CC3)[S@](=N)(=O)C)C4=C5C=CNC5=NC=C4 [AZD6738]; conditions: max 10 µM
Procedure, shortened: as §1

[14] = compound: COc1cc(Nc2ncc3c(n2)-c2ccc(Cl)cc2C(c2c(F)cccc2OC)=NC3)ccc1C(=O)O [Alisertib]; conditions: max 10 µM
Procedure, shortened: as §1

[15] = compound: COc1cccc2c1C(=O)c1c(O)c3c(c(O)c1C2=O)C[C@@](O)(C(=O)CO)C[C@@H]3O[C@H]1C[C@H](N)[C@H](O)[C@H](C)O1 [Doxorubicin]; conditions: max 1 µM
Procedure, shortened: as §1

[16] = compound: C[C@@H](Oc1cc(-c2cnn(C3CCNCC3)c2)cnc1N)c1c(Cl)ccc(F)c1Cl [Crizotinib]; conditions: max 10 µM
Procedure, shortened: as §1

[17] = compound: CC(C)n1c(=O)n(C)c2cnc3cc(F)c(-c4ccc(OCCCN5CCCCC5)nc4)cc3c21 [AZD1390]; conditions: max 0.3 µM
Procedure, shortened: as §1

[18] = compound: COc1cc2ncnc(Nc3ccc(F)c(Cl)c3)c2cc1OCCCN1CCOCC1 [Gefitinib]; conditions: max 10 µM
Procedure, shortened: as §1

[19] = compound: CC1=C(C(=CC=C1)Cl)NC(=O)C2=CN=C(S2)NC3=CC(=NC(=N3)C)N4CCN(CC4)CCO [Dasatinib]; conditions: max 2 µM
Procedure, shortened: as §1

[20] = compound: CS(=O)(=O)CCNCc1ccc(-c2ccc3ncnc(Nc4ccc(OCc5cccc(F)c5)c(Cl)c4)c3c2)o1 [Lapatinib]; conditions: max 10 µM
Procedure, shortened: as §1

[21] = compound: C=CCn1c(=O)c2cnc(Nc3ccc(N4CCN(C)CC4)cc3)nc2n1-c1cccc(C(C)(C)O)n1 [AZD1775]; conditions: max 3 µM
Procedure, shortened: as §1

[22] = compound: C[C@@H](c1ccc2nccn2c1)n1nnc2ncc(-c3cnn(C)c3)nc21 [Savolitinib]; conditions: max 1 µM
Procedure, shortened: as §1

[23] = compound: Cc1cc2ncnn2cc1Nc1ncc2c(n1)n(C1CCOCC1)c(=O)n2C [AZD7648]; conditions: max 10 µM
Procedure, shortened: as §1

[24] = compound: CC1=CN2[C@@H](C1)C=NC3=CC(=C(C=C3C2=O)OC)OCCCCCOC4=C(C=C5C(=C4)N=C[C@@H]6CC(=CN6C5=O)C)OC [SG3199]; conditions: max 0.001 µM
Procedure, shortened: as §1

[25] = compound: CCc1c2c(nc3ccc(O)cc13)-c1cc3c(c(=O)n1C2)COC(=O)[C@]3(O)CC [SN-38]; conditions: max 0.3 µM
Procedure, shortened: as §1

[26] = compound: CC(=O)Nc1cccc(-n2c(=O)n(C3CC3)c(=O)c3c(Nc4ccc(I)cc4F)n(C)c(=O)c(C)c32)c1 [Trametinib]; conditions: max 1 µM
Procedure, shortened: as §1

[27] = compound: Cc1nc(-c2cn3c(n2)-c2ccc(-c4cnn(C(C)(C)C(N)=O)c4)cc2OCC3)n(C(C)C)n1 [Taselisib]; conditions: max 10 µM
Procedure, shortened: as §1

Row | Cell Line | IC50, cell viability 72 h [1] [nM] | IC50, cell viability 72 h ([2]; max 10 µM) [nM] | IC50, cell viability 72 h [3] [nM] | IC50, cell viability 72 h ([4]; max 10 µM) [nM] | IC50, cell viability 72 h [5] [nM] | IC50, cell viability 72 h [6] [nM] | IC50, cell viability 72 h [7] [nM] | IC50, cell viability 72 h [8] [nM] | IC50, cell viability 72 h [9] [nM] | IC50, cell viability 72 h [10] [nM] | IC50, cell viability 72 h [11] [nM] | IC50, cell viability 72 h [12] [nM] | IC50, cell viability 72 h [13] [nM] | IC50, cell viability 72 h [14] [nM] | IC50, cell viability 72 h [15] [nM] | IC50, cell viability 72 h [16] [nM] | IC50, cell viability 72 h [17] [nM] | IC50, cell viability 72 h [18] [nM] | IC50, cell viability 72 h [19] [nM] | IC50, cell viability 72 h [20] [nM] | IC50, cell viability 72 h [21] [nM] | IC50, cell viability 72 h [22] [nM] | IC50, cell viability 72 h [23] [nM] | IC50, cell viability 72 h [24] [nM] | IC50, cell viability 72 h [25] [nM] | IC50, cell viability 72 h [26] [nM] | IC50, cell viability 72 h [27] [nM] | IC50, cell viability 72 h ([2]; max 3 µM) [nM] | IC50, cell viability 72 h ([4]; max 3 µM) [nM]
1 | NCI-H1793 (Lung Adenocarcinoma) | > 1000 | > 10000 | > 10000 | > 10000 | 938 | > 3000 | > 3000 | > 1000 | > 1000 | > 1000 | > 10000 | > 1000 | > 10000 | > 10000 | > 1000 | > 10000 | > 300 | > 10000 | 1100 | > 10000 | > 3000 | > 1000 | > 10000 | > 1 | > 300 | > 1000 | > 10000 | – | –
2 | CAL-78 (Chondrosarcoma) | > 1000 | > 10000 | > 10000 | > 10000 | 226 | > 3000 | > 3000 | > 1000 | 261 | > 1000 | > 10000 | > 1000 | > 10000 | 1780 | > 1000 | > 10000 | > 300 | > 10000 | > 2000 | > 10000 | 898 | > 1000 | > 10000 | > 1 | 54.1 | > 1000 | > 10000 | – | –
3 | CTV-1 (T-Lymphoblastic Leukemia) | > 1000 | 5880 | 1470 | > 10000 | 7.28 | > 3000 | > 3000 | > 1000 | > 1000 | > 1000 | > 10000 | 57.5 | 3920 | 199 | 45.6 | 371 | > 300 | 4930 | < 2 | > 10000 | 280 | > 1000 | > 10000 | > 1 | 3.52 | > 1000 | 3170 | – | –
4 | HPAC (Pancreatic Carcinoma) | > 1000 | > 10000 | > 10000 | > 10000 | 81.6 | > 3000 | > 3000 | > 1000 | > 1000 | > 1000 | 3160 | 579 | > 10000 | 3960 | > 1000 | 6650 | > 300 | > 10000 | > 2000 | > 10000 | 1500 | > 1000 | > 10000 | > 1 | > 300 | 22.7 | 2380 | – | –
5 | CFPAC-1 (Pancreatic Carcinoma) | > 1000 | > 10000 | > 10000 | > 10000 | 108 | > 3000 | > 3000 | > 1000 | > 1000 | > 1000 | > 10000 | > 1000 | > 10000 | > 10000 | > 1000 | > 10000 | > 300 | > 10000 | > 2000 | > 10000 | 1440 | > 1000 | > 10000 | > 1 | 26.1 | > 1000 | 5770 | – | –
6 | IGR-1 (Melanoma) | > 1000 | > 10000 | > 10000 | > 10000 | 617 | > 3000 | > 3000 | > 1000 | > 1000 | > 1000 | > 10000 | > 1000 | > 10000 | > 10000 | > 1000 | 6250 | > 300 | > 10000 | > 2000 | 8830 | > 3000 | > 1000 | > 10000 | > 1 | > 300 | > 1000 | > 10000 | – | –
7 | C3A (Hepatocellular Carcinoma) | > 1000 | > 10000 | > 10000 | > 10000 | 524 | > 3000 | > 3000 | > 1000 | > 1000 | > 1000 | 7960 | > 1000 | > 10000 | > 10000 | > 1000 | > 10000 | > 300 | > 10000 | > 2000 | > 10000 | 2480 | > 1000 | > 10000 | > 1 | 143 | 657 | > 10000 | – | –
8 | JiyoyeP-2003 (Burkitt's Lymphoma) | > 1000 | 2320 | 4700 | > 10000 | 11.7 | > 3000 | > 3000 | 403 | 814 | > 1000 | > 10000 | 49.2 | 1370 | 271 | 172 | > 10000 | > 300 | > 10000 | 1020 | > 10000 | 597 | > 1000 | > 10000 | > 1 | 14.1 | > 1000 | 9670 | – | –
9 | BB49-HNC (Head and Neck Carcinoma) | – | – | – | – | – | > 3000 | – | – | – | – | – | – | – | – | – | – | – | – | – | – | 309 | – | – | – | – | – | – | 1990 | > 3000
